Assay results: PMC12044090 (EJNMMI Research, 2025)

Target: T1, FAP (HT1080-hFAP cells) (Homo sapiens, UniProt Q12884)
T1 sequence (Q12884 1-760): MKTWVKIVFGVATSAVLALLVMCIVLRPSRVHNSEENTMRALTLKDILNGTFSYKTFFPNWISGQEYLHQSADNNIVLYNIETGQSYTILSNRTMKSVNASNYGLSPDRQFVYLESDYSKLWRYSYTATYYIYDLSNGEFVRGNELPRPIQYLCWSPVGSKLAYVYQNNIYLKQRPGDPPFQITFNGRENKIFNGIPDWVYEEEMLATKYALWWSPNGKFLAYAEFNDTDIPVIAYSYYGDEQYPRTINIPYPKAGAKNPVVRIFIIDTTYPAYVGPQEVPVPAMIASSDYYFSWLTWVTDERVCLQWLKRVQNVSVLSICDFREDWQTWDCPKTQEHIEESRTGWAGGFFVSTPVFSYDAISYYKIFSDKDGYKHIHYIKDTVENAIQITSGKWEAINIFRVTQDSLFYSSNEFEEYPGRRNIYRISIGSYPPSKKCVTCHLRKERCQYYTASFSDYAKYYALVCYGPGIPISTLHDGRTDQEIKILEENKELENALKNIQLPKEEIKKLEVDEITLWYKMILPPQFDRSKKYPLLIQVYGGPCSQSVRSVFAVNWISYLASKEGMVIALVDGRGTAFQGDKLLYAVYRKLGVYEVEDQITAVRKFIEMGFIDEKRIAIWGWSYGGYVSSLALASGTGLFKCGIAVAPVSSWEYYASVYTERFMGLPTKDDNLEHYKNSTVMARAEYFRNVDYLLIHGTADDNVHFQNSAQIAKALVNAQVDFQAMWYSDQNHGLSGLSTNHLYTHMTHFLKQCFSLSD
Assay: Affinity assay: competition against [68Ga]Ga-FAP2286 in HT1080-hFAP cells
Type: binding

`CCCCCC(=O)N[C@H]1CSCc2cc(CSCCNC(=O)CN3CCN(CC(=O)O)CCN(CC(=O)O)CCN(CC(=O)O)CC3)cc(c2)CSC[C@@H](C(=O)O)NC(=O)[C@H](Cc2ccccc2)NC(=O)[C@H](CCC(N)=O)NC(=O)[C@H]([C@@H](C)O)NC(=O)[C@@H]2CCCN2C(=O)[C@@H]2CCCN2C1=O` [FAP2286] showed an IC50 of 6.58 ± 1.6 nM.
`CCCCCC(=O)N[C@H]1CSCc2cc(CSCCNC(=O)CCCCCNC(=O)CC[C@H](NC(=O)CCC(C(=O)O)N3CCN(CC(=O)O)CCN(CC(=O)O)CCN(CC(=O)O)CC3)C(=O)NCCCOc3ccc4nccc(C(=O)NCC(=O)N5CC(F)(F)C[C@H]5C#N)c4c3)cc(c2)CSC[C@@H](C(=O)O)NC(=O)[C@H](Cc2ccccc2)NC(=O)[C@H](CCC(N)=O)NC(=O)[C@H]([C@@H](C)O)NC(=O)[C@@H]2CCCN2C(=O)[C@@H]2CCCN2C1=O` (some centres unmarked) [BiFAPI] gave an IC50 of 11.4 ± 1.66 nM.
